Molecules are shown by their SMILES. pIC50: −log10 of the molar value.

Sequence of Human complement C1s enzyme (P09871 438-688 limits assumed): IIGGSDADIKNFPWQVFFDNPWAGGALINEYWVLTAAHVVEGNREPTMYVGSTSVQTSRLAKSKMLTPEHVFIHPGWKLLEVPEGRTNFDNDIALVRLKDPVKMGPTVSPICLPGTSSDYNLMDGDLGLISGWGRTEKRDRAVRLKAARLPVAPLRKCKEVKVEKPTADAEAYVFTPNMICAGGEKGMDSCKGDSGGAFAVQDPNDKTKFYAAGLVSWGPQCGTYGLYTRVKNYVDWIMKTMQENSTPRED
Sequence of Human complement C1s enzyme (P09871 16-437 partner limits assumed): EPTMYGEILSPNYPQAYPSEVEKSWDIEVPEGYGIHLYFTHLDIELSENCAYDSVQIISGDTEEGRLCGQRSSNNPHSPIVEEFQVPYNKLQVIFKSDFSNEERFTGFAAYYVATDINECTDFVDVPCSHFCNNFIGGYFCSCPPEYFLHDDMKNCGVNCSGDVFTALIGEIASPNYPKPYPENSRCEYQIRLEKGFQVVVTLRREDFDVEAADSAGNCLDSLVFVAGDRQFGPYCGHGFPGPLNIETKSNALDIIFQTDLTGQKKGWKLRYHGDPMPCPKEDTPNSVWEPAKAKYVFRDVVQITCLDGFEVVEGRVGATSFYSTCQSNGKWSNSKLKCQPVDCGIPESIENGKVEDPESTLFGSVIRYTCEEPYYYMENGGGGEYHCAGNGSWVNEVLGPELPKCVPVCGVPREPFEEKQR

This assay deals with Human complement C1s enzyme (Homo sapiens (Human), UniProt P09871). The experiment in a line: Human C1s enzyme assay. Type of assay: biochemical. Conditions: Human complement C1s enzyme 1.16 nM, substrate Z-L-Lys-SBzl 100 μM, assay of Example 3; read-out: IC50 (Stars). The essentials:
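Purified serum-derived human C1s (1.16 nM final) preincubated 5 min at room temperature with compound in 50 mM Tris, 1 M NaCl, pH 7.5. Z-L-Lys-SBzl thioester substrate and DTNB added (100 μM each, final); A405 read every 30 s for 30 min. IC50 from nonlinear regression of reaction rates against compound concentration.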
In the case of `COC[C@@]1(F)C[C@@H](C(=O)N[C@H](C)c2cc(C(=N)N)cs2)N(C(=O)CNC(=O)c2ccc3c(c2)sc2ccccc23)C1` [Compound 343, (2S,4R)—N—((R)-1-(4-carbamimidoylthiophen-2-yl)ethyl)-1-((dibenzo[b,d]thiophene-3-carbonyl)glycyl)-4-fluoro-4-(methoxymethyl)pyrrolidine-2-carboxamide], the negative logarithm of the IC50 (pIC50) was > 7.00.

With `COC[C@@]1(F)C[C@@H](C(=O)N[C@H](C)c2cc(C(=N)N)cs2)N(C(=O)CNC(=O)c2ccc3c(c2)C(C)(C)c2ccccc2-3)C1` [Compound 344, (2S,4R)—N—((R)-1-(4-carbamimidoylthiophen-2-yl)ethyl)-1-((9,9-dimethyl-9H-fluorene-2-carbonyl)glycyl)-4-fluoro-4-(methoxymethyl) pyrrolidine-2-carboxamide], the pIC50 was > 7.00.

On to `C[C@@H](NC(=O)[C@@H]1CC2(CN1C(=O)CCC(=O)c1ccc(-c3ccccc3)cc1)OCCO2)c1cc(C(=N)N)cs1` [Compound 345, (S)-7-(4-([1,1′-biphenyl]-4-yl)-4-oxobutanoyl)-N—((R)-1-(4-carbamimidoylthiophen-2-yl)ethyl)-1,4-dioxa-7-azaspiro[4.4]nonane-8-carboxamide], for which the pIC50 was > 7.00.

On to `C[C@@H](NC(=O)[C@@H]1CC2(CN1C(=O)CN1Cc3ccc(-c4ccc(F)cc4F)cc3C1=O)OCCO2)c1cc(C(=N)N)cs1` [Compound 346, (S)—N—((R)-1-(4-carbamimidoylthiophen-2-yl)ethyl)-7-(2-(6-(2,4-difluorophenyl)-1-oxoisoindolin-2-yl)acetyl)-1,4-dioxa-7-azaspiro[4.4]nonane-8-carboxamide], for which the pIC50 was > 7.00.

On to `C[C@@H](NC(=O)[C@@H]1CC2(CN1C(=O)CNC(=O)c1ncc(-c3ccccc3)cc1F)OCCO2)c1cc(C(=N)N)cs1` [Compound 347, (S)—N—((R)-1-(4-carbamimidoylthiophen-2-yl)ethyl)-7-((3-fluoro-5-phenylpicolinoyl)glycyl)-1,4-dioxa-7-azaspiro[4.4]nonane-8-carboxamide], for which the pIC50 is > 7.00.

As for `C[C@@H](NC(=O)[C@@H]1C[C@@H](OC(F)F)CN1C(=O)CNC(=O)c1ccc2c(c1)C(C)(C)c1ccccc1-2)c1cc(C(=N)N)cs1` [Compound 348, (2S,4R)-N-((R)-1-(4-carbamimidoylthiophen-2-yl)ethyl)-4-(difluoromethoxy)-1-((9,9-dimethyl-9H-fluorene-2-carbonyl)glycyl) pyrrolidine-2-carboxamide], the pIC50 was > 7.00.

Consider `C[C@@H](NC(=O)[C@@H]1C[C@](F)(CF)CN1C(=O)CNC(=O)c1ccc2c(c1)sc1ccccc12)c1cc(C(=N)N)cs1` [Compound 349, (2S,4R)—N—((R)-1-(4-carbamimidoylthiophen-2-yl)ethyl)-1-((dibenzo[b,d]thiophene-3-carbonyl)glycyl)-4-fluoro-4-(fluoromethyl)pyrrolidine-2-carboxamide], for which the pIC50 was > 7.00.

Regarding `COC[C@@]1(F)C[C@@H](C(=O)N[C@H](C)c2cc(C(=N)N)cs2)N(C(=O)CNC(=O)c2ccc3c(c2)S(=O)(=O)c2ccccc2-3)C1` [Compound 350, (2S,4R)—N—((R)-1-(4-carbamimidoylthiophen-2-yl)ethyl)-1-((5,5-dioxidodibenzo[b,d]thiophene-3-carbonyl)glycyl)-4-fluoro-4-(methoxymethyl) pyrrolidine-2-carboxamide], the pIC50 is > 7.00.

As for `C[C@@H](NC(=O)[C@@H]1C[C@@H](S(=O)(=O)C2CC2)CN1C(=O)CNC(=O)c1ccc2c(c1)-c1ccccc1C2(F)F)c1cc(C(=N)N)cs1` [Compound 351, (2S,4R)—N—((R)-1-(4-carbamimidoylthiophen-2-yl)ethyl)-4-(cyclopropylsulfonyl)-1-((9,9-difluoro-9H-fluorene-3-carbonyl)glycyl)pyrrolidine-2-carboxamide], the pIC50 is > 7.00.

Regarding `C[C@@H](NC(=O)[C@@H]1C[C@@H](OC(F)F)CN1C(=O)CNC(=O)c1ccc2c(c1)sc1ccccc12)c1cc(C(=N)N)cs1` [Compound 352, (2S,4R)—N—((R)-1-(4-carbamimidoylthiophen-2-yl)ethyl)-1-((dibenzo[b,d]thiophene-3-carbonyl)glycyl)-4-(difluoromethoxy)pyrrolidine-2-carboxamide], the pIC50 was > 7.00.

On to `C[C@@H](NC(=O)[C@@H]1C[C@@H](OC(F)F)CN1C(=O)CNC(=O)c1ccc2sc3ccccc3c2c1)c1cc(C(=N)N)cs1` [Compound 353, (2S,4R)—N—((R)-1-(4-carbamimidoylthiophen-2-yl)ethyl)-1-((dibenzo[b,d]thiophene-2-carbonyl)glycyl)-4-(difluoromethoxy)pyrrolidine-2-carboxamide], for which the pIC50 was > 7.00.

As for `C[C@@H](NC(=O)[C@@H]1C[C@](F)(CF)CN1C(=O)CNC(=O)c1ccc2sc3ccccc3c2c1)c1cc(C(=N)N)cs1` [Compound 354, (2S,4R)—N—((R)-1-(4-carbamimidoylthiophen-2-yl)ethyl)-1-((dibenzo[b,d]thiophene-2-carbonyl)glycyl)-4-fluoro-4-(fluoromethyl)pyrrolidine-2-carboxamide], the pIC50 is > 7.00.

With `C[C@@H](NC(=O)[C@@H]1C[C@H](c2cccnc2)CN1C(=O)CNC(=O)c1ccc2c(c1)-c1ccccc1C2(F)F)c1cc(C(=N)N)cs1` [Compound 355, (2S,4R)—N—((R)-1-(4-carbamimidoylthiophen-2-yl)ethyl)-1-((9,9-difluoro-9H-fluorene-3-carbonyl)glycyl)-4-(pyridin-3-yl)pyrrolidine-2-carboxamide], the pIC50 was > 7.00.

Regarding `C[C@@H](NC(=O)[C@@H]1CC2(CN1C(=O)CNC(=O)c1ncc(-c3ccc(F)cc3F)cc1F)OCCO2)c1cc(C(=N)N)cs1` [Compound 356, (S)—N—((R)-1-(4-carbamimidoylthiophen-2-yl)ethyl)-7-((5-(2,4-difluorophenyl)-3-fluoropicolinoyl)glycyl)-1,4-dioxa-7-azaspiro[4.4]nonane-8-carboxamide], the pIC50 was > 7.00.

Take `CC1c2ccccc2-c2ccc(C(=O)NCC(=O)N3C[C@H](OC(F)F)C[C@H]3C(=O)N[C@H](C)c3cc(C(=N)N)cs3)cc21` (stereo partly drawn) [Compound 357, (2S,4R)—N—((R)-1-(4-carbamimidoylthiophen-2-yl)ethyl)-4-(difluoromethoxy)-1-((9-methyl-9H-fluorene-2-carbonyl)glycyl)pyrrolidine-2-carboxamide]: the pIC50 was > 7.00.

Take `C[C@@H](NC(=O)[C@@H]1C[C@H](c2ccccn2)CN1C(=O)CNC(=O)c1ccc2c(c1)-c1ccccc1C2(F)F)c1cc(C(=N)N)cs1` [Compound 358, (2S,4S)—N—((R)-1-(4-carbamimidoylthiophen-2-yl)ethyl)-1-((9,9-difluoro-9H-fluorene-3-carbonyl)glycyl)-4-(pyridin-2-yl)pyrrolidine-2-carboxamide]: the pIC50 is > 7.00.

Regarding `COC[C@@]1(F)C[C@@H](C(=O)N[C@H](C)c2cc(C(=N)N)cs2)N(C(=O)CNC(=O)c2ccc3c(c2)oc2ccccc23)C1` [Compound 360, (2S,4R)—N—((R)-1-(4-carbamimidoylthiophen-2-yl)ethyl)-1-((dibenzo[b,d]furan-3-carbonyl)glycyl)-4-fluoro-4-(methoxymethyl)pyrrolidine-2-carboxamide], the pIC50 was > 7.00.

What is called pIC50 is −log10 of the IC50, conventionally taken in molar units.

The values are drawn from patent US20250346585A1 (Alexion Pharmaceuticals, Inc., priority 2022, published 2025).
